For data set [1] the following is noted: rat striatum, 18F-LBT-999, ref Sérrière et al. [2014]; cited from earlier work.
In data set [2] the target is DAT (Rattus norvegicus, UniProt P23977). It is filed as in vivo. Conditions: GBR12909 12.5 mg/kg i.p. 15 min before LBT-999 0.02 mg/kg i.v.

SMILES strings stand for the structures. Where a name gives a salt, the structure may show the parent alone.

DAT, sequence (P23977 whole entry): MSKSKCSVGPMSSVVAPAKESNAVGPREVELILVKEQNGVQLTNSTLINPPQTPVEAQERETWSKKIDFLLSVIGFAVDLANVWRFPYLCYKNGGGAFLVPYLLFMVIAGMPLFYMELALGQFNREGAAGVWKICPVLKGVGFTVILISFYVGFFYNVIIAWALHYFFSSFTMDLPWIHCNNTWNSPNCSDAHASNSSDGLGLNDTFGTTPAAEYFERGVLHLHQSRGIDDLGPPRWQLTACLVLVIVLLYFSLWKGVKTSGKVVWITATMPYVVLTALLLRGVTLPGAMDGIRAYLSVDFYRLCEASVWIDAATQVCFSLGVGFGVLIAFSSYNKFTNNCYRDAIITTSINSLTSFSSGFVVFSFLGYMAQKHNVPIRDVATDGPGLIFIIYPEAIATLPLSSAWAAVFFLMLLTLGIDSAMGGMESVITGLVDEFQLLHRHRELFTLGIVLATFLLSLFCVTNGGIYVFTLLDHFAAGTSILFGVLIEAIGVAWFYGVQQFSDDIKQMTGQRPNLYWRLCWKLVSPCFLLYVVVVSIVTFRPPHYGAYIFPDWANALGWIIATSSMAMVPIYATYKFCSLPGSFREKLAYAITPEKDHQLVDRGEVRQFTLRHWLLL

For the molecule `COC(=O)[C@H]1[C@@H](c2ccc(C)cc2)C[C@@H]2CC[C@H]1N2C/C=C/C[18F]` [18F-LBT-999], in data set [1], the “average percentage of injected doses in the striatum derived from PET studies” value was 2.17 ± 0.42%.
As to `Fc1ccc(C(OCCN2CCN(CCCc3ccccc3)CC2)c2ccc(F)cc2)cc1` [GBR 12909, 1-(2-bis(4-fluorophenyl)methoxy)ethyl)-4-(3-phenylpropyl)piperazine hydrochloride], in data set [2], the “effect on brain binding of LBT-999” value is “prevented any binding of LBT-999”.

The record behind these values is paper PMC11349956 (EJNMMI Radiopharmacy and Chemistry, 2024).
